In publication PMC12136037, “Type II kinase inhibitors that target Parkinson’s disease–associated LRRK2” (Science Advances, 2025):
Several values for one entry are separate records, joined by “and”; a condition that tells them apart may be missing. Equal values may be shown once. Read-outs that look alike come from different tables or passages of the source.

Assays:
Test in all cases: nanoBRET off-target validation
Format in all cases: cell-based
[1] = biological target: T1, DDR2 (Homo sapiens, UniProt Q16832)
T1 construct: host or cells: HEK293T (ATCC CRL-3216)
T1 sequence (Q16832 22-855): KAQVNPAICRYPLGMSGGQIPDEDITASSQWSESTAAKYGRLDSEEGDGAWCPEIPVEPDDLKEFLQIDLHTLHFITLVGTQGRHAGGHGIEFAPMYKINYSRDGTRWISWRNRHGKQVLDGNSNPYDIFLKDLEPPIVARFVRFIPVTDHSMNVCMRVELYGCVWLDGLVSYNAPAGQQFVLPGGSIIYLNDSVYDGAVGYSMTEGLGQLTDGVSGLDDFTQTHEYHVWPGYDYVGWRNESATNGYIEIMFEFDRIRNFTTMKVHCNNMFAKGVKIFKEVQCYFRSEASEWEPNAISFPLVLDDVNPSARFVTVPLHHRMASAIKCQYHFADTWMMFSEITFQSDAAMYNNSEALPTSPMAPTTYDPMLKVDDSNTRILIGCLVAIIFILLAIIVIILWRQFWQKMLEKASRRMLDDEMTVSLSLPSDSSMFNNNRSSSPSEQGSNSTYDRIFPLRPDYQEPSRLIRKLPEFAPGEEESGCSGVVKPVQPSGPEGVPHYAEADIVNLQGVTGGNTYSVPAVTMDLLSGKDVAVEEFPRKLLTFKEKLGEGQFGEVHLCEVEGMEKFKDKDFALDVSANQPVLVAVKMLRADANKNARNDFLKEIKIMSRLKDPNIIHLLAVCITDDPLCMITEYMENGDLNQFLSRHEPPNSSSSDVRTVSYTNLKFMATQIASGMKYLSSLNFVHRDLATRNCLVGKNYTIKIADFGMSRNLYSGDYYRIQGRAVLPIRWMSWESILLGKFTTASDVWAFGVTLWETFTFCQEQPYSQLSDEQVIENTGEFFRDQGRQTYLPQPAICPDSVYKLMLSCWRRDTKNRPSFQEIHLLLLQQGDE
Experimental: (§1) The assay was performed as described previously ([61]). In brief, full-length kinases as listed in table S6 were obtained as plasmids cloned in frame with terminal NanoLuc-fusion (gift from Promega; table S6). […] Serially diluted inhibitor and corresponding tracer as listed in table S6 at the Tracer KD concentration taken from TracerDB (tracerdb.org) ([62]) were pipetted into white 384-well plates (Greiner, 781207) using an ECHO acoustic dispenser (Labcyte). The corresponding protein-transfected cells were added and reseeded at a density of 2 × 10^5 cells/ml after trypsinization and resuspending in Opti-MEM without phenol red (Life Technologies). The system was allowed to equilibrate for 3 hours at 37°C/5% CO2 before bioluminescence resonance energy transfer (BRET) measurements. To measure BRET, NanoBRET NanoGlo Substrate + extracellular NanoLuc Inhibitor (Promega, N2540) was added as per the manufacturer’s protocol, and filtered luminescence was measured on a PHERAstar plate reader (BMG Labtech) equipped with a luminescence filter pair [450-nm BP filter (donor) and 610-nm LP filter (acceptor)]. […] (For step-by-step protocol, see www.eubopen.org/sites/www.eubopen.org/files/attachments/2021/NanoBRET-IC50_v1_0.pdf.)

[2] = biological target: T2, JNK3 (Homo sapiens, UniProt P53779)
T2 construct: host or cells: HEK293T (ATCC CRL-3216)
Experimental: as §1

[3] = biological target: T3, TTK (Homo sapiens, UniProt P33981)
T3 construct: host or cells: HEK293T (ATCC CRL-3216)
T3 sequence (P33981 1-857): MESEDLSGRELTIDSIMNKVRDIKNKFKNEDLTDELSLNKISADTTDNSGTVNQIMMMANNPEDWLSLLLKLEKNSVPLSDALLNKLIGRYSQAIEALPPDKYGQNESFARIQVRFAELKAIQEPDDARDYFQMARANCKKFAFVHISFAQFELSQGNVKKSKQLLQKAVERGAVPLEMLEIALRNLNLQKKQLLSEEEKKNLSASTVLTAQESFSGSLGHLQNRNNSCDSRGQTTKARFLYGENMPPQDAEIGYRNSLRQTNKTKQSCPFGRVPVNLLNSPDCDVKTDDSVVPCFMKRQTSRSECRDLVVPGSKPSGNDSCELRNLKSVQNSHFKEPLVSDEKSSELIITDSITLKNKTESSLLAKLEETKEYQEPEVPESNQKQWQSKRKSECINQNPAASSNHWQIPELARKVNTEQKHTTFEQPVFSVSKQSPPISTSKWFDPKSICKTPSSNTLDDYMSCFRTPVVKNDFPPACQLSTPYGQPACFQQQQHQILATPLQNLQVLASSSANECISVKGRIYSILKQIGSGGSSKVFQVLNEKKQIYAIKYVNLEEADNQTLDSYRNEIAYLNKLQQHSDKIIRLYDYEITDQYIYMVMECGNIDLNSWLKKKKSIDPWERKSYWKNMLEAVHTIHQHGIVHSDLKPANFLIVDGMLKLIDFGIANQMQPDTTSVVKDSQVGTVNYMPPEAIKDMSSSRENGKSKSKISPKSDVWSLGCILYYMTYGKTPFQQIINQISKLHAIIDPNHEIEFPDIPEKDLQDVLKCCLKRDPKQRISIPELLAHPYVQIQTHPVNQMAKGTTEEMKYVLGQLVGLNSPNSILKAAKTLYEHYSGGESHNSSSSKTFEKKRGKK
Experimental: as §1

T2 sequence (P53779 whole entry): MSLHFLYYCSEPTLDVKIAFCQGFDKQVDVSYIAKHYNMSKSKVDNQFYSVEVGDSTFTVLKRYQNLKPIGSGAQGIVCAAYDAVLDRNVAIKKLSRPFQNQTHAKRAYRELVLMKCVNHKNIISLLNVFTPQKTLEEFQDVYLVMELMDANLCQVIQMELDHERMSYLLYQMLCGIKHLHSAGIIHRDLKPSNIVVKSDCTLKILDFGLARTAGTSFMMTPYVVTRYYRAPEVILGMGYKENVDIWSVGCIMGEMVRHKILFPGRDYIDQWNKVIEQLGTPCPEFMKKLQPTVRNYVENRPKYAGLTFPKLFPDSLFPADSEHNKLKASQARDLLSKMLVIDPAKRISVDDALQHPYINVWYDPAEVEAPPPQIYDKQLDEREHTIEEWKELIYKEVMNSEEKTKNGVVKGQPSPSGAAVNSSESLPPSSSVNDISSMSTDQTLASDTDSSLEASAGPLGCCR

What does the source list for `CCSc1nc(NC)c2c(-c3cccc(NC(=O)Nc4cc(C(C)(C)C)nn4-c4ccc(C)cc4)c3)c[nH]c2n1` [Compound 32]?
EC50 [1]: > 20 µM; remaining tracer BRET signal at 0.008 µM ([1]; DDR2, inhibitor 8 nM, two replicates, read-out: nanoBRET response normalized to 0% (no tracer) and 100% (no inhibitor) control): 102% and 95.3%; nanoBRET response normalized to 0% (no tracer) and 100% (no inhibitor) control ([1]; DDR2, inhibitor 16 nM, two replicates, listed as RN341, 0.016 µM): 102.202%; remaining tracer BRET signal at 0.016 µM ([1]; DDR2, inhibitor 16 nM, two replicates, read-out: nanoBRET response normalized to 0% (no tracer) and 100% (no inhibitor) control): 105%; nanoBRET response normalized to 0% (no tracer) and 100% (no inhibitor) control ([1]; DDR2, inhibitor 50 nM, two replicates, listed as RN341, 0.05 µM): 98.4821%; remaining tracer BRET signal at 0.05 µM ([1]; DDR2, inhibitor 50 nM, two replicates, read-out: nanoBRET response normalized to 0% (no tracer) and 100% (no inhibitor) control): 114%; nanoBRET response normalized to 0% (no tracer) and 100% (no inhibitor) control ([1]; DDR2, inhibitor 250 nM, two replicates, listed as RN341, […]): 104.362%; remaining tracer BRET signal at […] ([1]; DDR2, inhibitor 250 nM, two replicates, read-out: nanoBRET response normalized to 0% (no tracer) and 100% (no inhibitor) control): 123%; nanoBRET response normalized to 0% (no tracer) and 100% (no inhibitor) control ([1]; DDR2, inhibitor 500 nM, two replicates, listed as RN341, 0.5 µM): 117.148%; remaining tracer BRET signal at 0.5 µM ([1]; DDR2, inhibitor 500 nM, two replicates, read-out: nanoBRET response normalized to 0% (no tracer) and 100% (no inhibitor) control): 129%; nanoBRET response normalized to 0% (no tracer) and 100% (no inhibitor) control ([1]; DDR2, inhibitor 2500 nM, two replicates, listed as RN341, […]): 86.9292%; remaining tracer BRET signal at […] ([1]; DDR2, inhibitor 2500 nM, two replicates, read-out: nanoBRET response normalized to 0% (no tracer) and 100% (no inhibitor) control): 103%; nanoBRET response normalized to 0% (no tracer) and 100% (no inhibitor) control ([1]; DDR2, inhibitor 5000 nM, two replicates, listed as RN341, 5 µM): 105.865%; remaining tracer BRET signal at 5 µM ([1]; DDR2, inhibitor 5000 nM, two replicates, read-out: nanoBRET response normalized to 0% (no tracer) and 100% (no inhibitor) control): 89.9%; nanoBRET response normalized to 0% (no tracer) and 100% (no inhibitor) control ([1]; DDR2, inhibitor 25000 nM, two replicates, listed as RN341, 25 µM): 54.8632%; remaining tracer BRET signal at 25 µM ([1]; DDR2, inhibitor 25000 nM, two replicates, read-out: nanoBRET response normalized to 0% (no tracer) and 100% (no inhibitor) control): 55.4%; EC50 [2]: 15 µM; nanoBRET response normalized to 0% (no tracer) and 100% (no inhibitor) control ([2]; JNK3, inhibitor 8 nM, two replicates, listed as RN341, 0.008 µM): 99.6644%; remaining nanoBRET tracer signal at 0.008 µM ([2]; JNK3, inhibitor 8 nM, two replicates, read-out: nanoBRET response normalized to 0% (no tracer) and 100% (no inhibitor) control): 90%; nanoBRET response normalized to 0% (no tracer) and 100% (no inhibitor) control ([2]; JNK3, inhibitor 16 nM, two replicates, listed as RN341, 0.016 µM): 91.5832%; remaining nanoBRET tracer signal at 0.016 µM ([2]; JNK3, inhibitor 16 nM, two replicates, read-out: nanoBRET response normalized to 0% (no tracer) and 100% (no inhibitor) control): 91.5%; nanoBRET response normalized to 0% (no tracer) and 100% (no inhibitor) control ([2]; JNK3, inhibitor 50 nM, two replicates, listed as RN341, 0.05 µM): 98.9095%; remaining nanoBRET tracer signal at 0.05 µM ([2]; JNK3, inhibitor 50 nM, two replicates, read-out: nanoBRET response normalized to 0% (no tracer) and 100% (no inhibitor) control): 96.2%; nanoBRET response normalized to 0% (no tracer) and 100% (no inhibitor) control ([2]; JNK3, inhibitor 250 nM, two replicates, listed as RN341, […]): 99.8628%; remaining nanoBRET tracer signal at […] ([2]; JNK3, inhibitor 250 nM, two replicates, read-out: nanoBRET response normalized to 0% (no tracer) and 100% (no inhibitor) control): 96.3%; nanoBRET response normalized to 0% (no tracer) and 100% (no inhibitor) control ([2]; JNK3, inhibitor 500 nM, two replicates, listed as RN341, 0.5 µM): 92.6932%; remaining nanoBRET tracer signal at 0.5 µM ([2]; JNK3, inhibitor 500 nM, two replicates, read-out: nanoBRET response normalized to 0% (no tracer) and 100% (no inhibitor) control): 93.9%; nanoBRET response normalized to 0% (no tracer) and 100% (no inhibitor) control ([2]; JNK3, inhibitor 2500 nM, two replicates, listed as RN341, […]): 84.3032%; remaining nanoBRET tracer signal at […] ([2]; JNK3, inhibitor 2500 nM, two replicates, read-out: nanoBRET response normalized to 0% (no tracer) and 100% (no inhibitor) control): 90.4%; nanoBRET response normalized to 0% (no tracer) and 100% (no inhibitor) control ([2]; JNK3, inhibitor 5000 nM, two replicates, listed as RN341, 5 µM): 67.4443%; remaining nanoBRET tracer signal at 5 µM ([2]; JNK3, inhibitor 5000 nM, two replicates, read-out: nanoBRET response normalized to 0% (no tracer) and 100% (no inhibitor) control): 74.7%; nanoBRET response normalized to 0% (no tracer) and 100% (no inhibitor) control ([2]; JNK3, inhibitor 25000 nM, two replicates, listed as RN341, 25 µM): 34.5338%; remaining nanoBRET tracer signal at 25 µM ([2]; JNK3, inhibitor 25000 nM, two replicates, read-out: nanoBRET response normalized to 0% (no tracer) and 100% (no inhibitor) control): 48.6%; nanoBRET response normalized to 0% (no tracer) and 100% (no inhibitor) control ([3]; TTK, inhibitor 8 nM, two replicates, listed as RN341, 0.008 µM): 91.3329%; remaining activity at 0.008 µM ([3]; TTK, inhibitor 8 nM, two replicates, read-out: nanoBRET response normalized to 0% (no tracer) and 100% (no inhibitor) control): 96.9%; nanoBRET response normalized to 0% (no tracer) and 100% (no inhibitor) control ([3]; TTK, inhibitor 16 nM, two replicates, listed as RN341, 0.016 µM): 88.618%; remaining activity at 0.016 µM ([3]; TTK, inhibitor 16 nM, two replicates, read-out: nanoBRET response normalized to 0% (no tracer) and 100% (no inhibitor) control): 84.1%; nanoBRET response normalized to 0% (no tracer) and 100% (no inhibitor) control ([3]; TTK, inhibitor 50 nM, two replicates, listed as RN341, 0.05 µM): 96.6909%; remaining activity at 0.05 µM ([3]; TTK, inhibitor 50 nM, two replicates, read-out: nanoBRET response normalized to 0% (no tracer) and 100% (no inhibitor) control): 85.3%; nanoBRET response normalized to 0% (no tracer) and 100% (no inhibitor) control ([3]; TTK, inhibitor 250 nM, two replicates, listed as RN341, […]): 83.1162%; remaining activity at […] ([3]; TTK, inhibitor 250 nM, two replicates, read-out: nanoBRET response normalized to 0% (no tracer) and 100% (no inhibitor) control): 80%; nanoBRET response normalized to 0% (no tracer) and 100% (no inhibitor) control ([3]; TTK, inhibitor 500 nM, two replicates, listed as RN341, 0.5 µM): 67.3053%; remaining activity at 0.5 µM ([3]; TTK, inhibitor 500 nM, two replicates, read-out: nanoBRET response normalized to 0% (no tracer) and 100% (no inhibitor) control): 61.5%; nanoBRET response normalized to 0% (no tracer) and 100% (no inhibitor) control ([3]; TTK, inhibitor 2500 nM, two replicates, listed as RN341, […]): 72.9908%; remaining activity at […] ([3]; TTK, inhibitor 2500 nM, two replicates, read-out: nanoBRET response normalized to 0% (no tracer) and 100% (no inhibitor) control): 70.3%; nanoBRET response normalized to 0% (no tracer) and 100% (no inhibitor) control ([3]; TTK, inhibitor 5000 nM, two replicates, listed as RN341, 5 µM): 54.1735%; remaining activity at 5 µM ([3]; TTK, inhibitor 5000 nM, two replicates, read-out: nanoBRET response normalized to 0% (no tracer) and 100% (no inhibitor) control): 40.9%; nanoBRET response normalized to 0% (no tracer) and 100% (no inhibitor) control ([3]; TTK, inhibitor 25000 nM, two replicates, listed as RN341, 25 µM): 18.6146%; remaining activity at 25 µM ([3]; TTK, inhibitor 25000 nM, two replicates, read-out: nanoBRET response normalized to 0% (no tracer) and 100% (no inhibitor) control): 14.2%; EC50 ([3]; in cellulo nanoBRET, 293T cells): < 5 µM and 3.2 µM
